This assay deals with CD2F1 mice, L1210 leukemia ip, survival T/C. The assay can be described thus: NCI In Vivo Anticancer Drug Screen. Data for tumor model L1210 Leukemia (intraperitoneal) in CD2F1 (CDF1) mice. The note with it: higher = longer survival. In outline: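 Vehicle-treated tumor-bearing mice served as controls (C) for compound-treated mice (T). Reported figure is T divided by C.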
Where [1] appears, read: endpoint: mean survival time, dose: 100.0 mg/kg/injection, schedule: Q01DX001 (ip), vehicle: saline with Tween-80.
Setting [2] is: endpoint: mean survival time, dose: 200.0 mg/kg/injection, schedule: Q01DX001 (ip), vehicle: saline with Tween-80.
Where [3] appears, read: endpoint: mean survival time, dose: 400.0 mg/kg/injection, schedule: Q01DX001 (ip), vehicle: saline with Tween-80.

Values joined by “and” are separate entries in the source; they are usually repeats but may differ in a detail not shown here. Identical values can stand only once. Toxic doses and inconclusive results are not listed.

As for `Nc1nc([Se])c2ncn(C3OC(CO)C(O)C3O)c2n1` (centres undefined), the T/C by setting is: (endpoint: mean survival time, dose: 1.0 mg/kg/injection, schedule: Q01DX009 (ip), vehicle: saline) 123 % of control; (endpoint: mean survival time, dose: 2.0 mg/kg/injection, schedule: Q01DX009 (ip), vehicle: distilled water + Tween-80) 114 % of control; (endpoint: mean survival time, dose: 2.0 mg/kg/injection, schedule: Q01DX009 (ip), vehicle: water) 119 % of control; (endpoint: mean survival time, dose: 2.0 mg/kg/injection, schedule: Q04DX003 (ip), vehicle: DMSO) 117 % of control; (endpoint: mean survival time, dose: 2.0 mg/kg/injection, schedule: Q04DX003 (ip), vehicle: clinical formulation) 116 % of control and 109 % of control; (endpoint: mean survival time, dose: 2.0 mg/kg/injection, schedule: Q04DX003 (ip), vehicle: saline) 115 % of control and 119 % of control. The T/C (endpoint: mean survival time, dose: 2.5 mg/kg/injection, schedule: Q01DX005 (iv), vehicle: water) was 95 % of control; the T/C (endpoint: mean survival time, dose: 4.0 mg/kg/injection, schedule: Q04DX003 (ip), vehicle: DMSO) is 113 % of control; the T/C (endpoint: mean survival time, dose: 4.0 mg/kg/injection, schedule: Q04DX003 (ip), vehicle: clinical formulation) was 113 % of control; the T/C (endpoint: mean survival time, dose: 5.0 mg/kg/injection, schedule: Q01DX005 (iv), vehicle: water) was 113 % of control; the T/C (endpoint: mean survival time, dose: 8.0 mg/kg/injection, schedule: Q04DX003 (ip), vehicle: clinical formulation) is 115 % of control; the T/C (endpoint: mean survival time, dose: 12.5 mg/kg/injection, schedule: Q01DX005 (ip), vehicle: saline) was 169 % of control. For the same compound, the T/C is 150 % of control (endpoint: mean survival time, dose: 16.0 mg/kg/injection, schedule: Q01DX009 (ip), vehicle: distilled water + Tween-80); 119 % of control (endpoint: mean survival time, dose: 16.0 mg/kg/injection, schedule: Q01DX009 (ip), vehicle: water); 191 % of control (endpoint: mean survival time, dose: 25.0 mg/kg/injection, schedule: Q01DX005 (ip), vehicle: saline); 156 % of control (endpoint: mean survival time, dose: 32.0 mg/kg/injection, schedule: Q01DX009 (ip), vehicle: distilled water + Tween-80); 116 % of control and 117 % of control (endpoint: mean survival time, dose: 32.0 mg/kg/injection, schedule: Q01DX009 (ip), vehicle: saline); 92 % of control (endpoint: mean survival time, dose: 32.0 mg/kg/injection, schedule: Q01DX009 (ip), vehicle: water). Also, the T/C is, setting by setting: (endpoint: mean survival time, dose: 40.0 mg/kg/injection, schedule: Q01DX005 (iv), vehicle: water) 151 % of control; (endpoint: mean survival time, dose: 50.0 mg/kg/injection, schedule: Q01DX005 (ip), vehicle: saline) 187 % of control; (endpoint: mean survival time, dose: 64.0 mg/kg/injection, schedule: Q01DX009 (ip), vehicle: saline) 87 % of control; (endpoint: median survival time, dose: 1.0 mg/kg/injection, schedule: Q01DX009 (sc), vehicle: DMSO) 100 % of control; (endpoint: median survival time, dose: 1.0 mg/kg/injection, schedule: Q03HX016 (ip), vehicle: DMSO) 153 % of control; (endpoint: median survival time, dose: 1.0 mg/kg/injection, schedule: Q03HX024 (ip), vehicle: DMSO) 150 % of control. Besides, the T/C is 172 % of control (endpoint: median survival time, dose: 2.0 mg/kg/injection, schedule: Q01DX009 (ip), vehicle: DMSO); 111 % of control (endpoint: median survival time, dose: 2.0 mg/kg/injection, schedule: Q01DX009 (sc), vehicle: DMSO); 171 % of control (endpoint: median survival time, dose: 2.0 mg/kg/injection, schedule: Q03HX008 (ip), vehicle: DMSO); 162 % of control (endpoint: median survival time, dose: 2.0 mg/kg/injection, schedule: Q03HX016 (ip), vehicle: DMSO); 178 % of control (endpoint: median survival time, dose: 2.0 mg/kg/injection, schedule: Q03HX024 (ip), vehicle: DMSO); 200 % of control (endpoint: median survival time, dose: 4.0 mg/kg/injection, schedule: Q01DX009 (ip), vehicle: DMSO). Also, the T/C by setting is: (endpoint: median survival time, dose: 4.0 mg/kg/injection, schedule: Q01DX009 (oral), vehicle: DMSO) 107 % of control; (endpoint: median survival time, dose: 4.0 mg/kg/injection, schedule: Q03HX008 (ip), vehicle: DMSO) 173 % of control; (endpoint: median survival time, dose: 4.0 mg/kg/injection, schedule: Q03HX016 (ip), vehicle: DMSO) 185 % of control; (endpoint: median survival time, dose: 4.0 mg/kg/injection, schedule: Q03HX024 (ip), vehicle: DMSO) 175 % of control; (endpoint: median survival time, dose: 4.0 mg/kg/injection, schedule: Q08DX002 (ip), vehicle: DMSO) 123 % of control; (endpoint: median survival time, dose: 8.0 mg/kg/injection, schedule: Q01DX001 (sc), vehicle: DMSO) 112 % of control. For the same compound, the T/C was 175 % of control (endpoint: median survival time, dose: 8.0 mg/kg/injection, schedule: Q01DX009 (ip), vehicle: DMSO); 123 % of control (endpoint: median survival time, dose: 8.0 mg/kg/injection, schedule: Q01DX009 (oral), vehicle: DMSO); 166 % of control (endpoint: median survival time, dose: 8.0 mg/kg/injection, schedule: Q01DX009 (sc), vehicle: DMSO); 176 % of control (endpoint: median survival time, dose: 8.0 mg/kg/injection, schedule: Q03HX008 (ip), vehicle: DMSO); 176 % of control (endpoint: median survival time, dose: 8.0 mg/kg/injection, schedule: Q03HX016 (ip), vehicle: DMSO); 185 % of control (endpoint: median survival time, dose: 8.0 mg/kg/injection, schedule: Q03HX024 (ip), vehicle: DMSO). The T/C runs as follows: (endpoint: median survival time, dose: 8.0 mg/kg/injection, schedule: Q04DX003 (ip), vehicle: DMSO) 166 % of control; (endpoint: median survival time, dose: 16.0 mg/kg/injection, schedule: Q01DX001 (oral), vehicle: DMSO) 120 % of control; (endpoint: median survival time, dose: 16.0 mg/kg/injection, schedule: Q01DX001 (sc), vehicle: DMSO) 121 % of control; (endpoint: median survival time, dose: 16.0 mg/kg/injection, schedule: Q01DX009 (ip), vehicle: DMSO) 191 % of control; (endpoint: median survival time, dose: 16.0 mg/kg/injection, schedule: Q01DX009 (oral), vehicle: DMSO) 158 % of control; (endpoint: median survival time, dose: 16.0 mg/kg/injection, schedule: Q01DX009 (sc), vehicle: DMSO) 187 % of control. Besides, the T/C was 178 % of control (endpoint: median survival time, dose: 16.0 mg/kg/injection, schedule: Q04DX003 (ip), vehicle: DMSO); 102 % of control (endpoint: median survival time, dose: 16.0 mg/kg/injection, schedule: Q08DX002 (ip), vehicle: DMSO); 117 % of control (endpoint: median survival time, dose: 32.0 mg/kg/injection, schedule: Q01DX001 (oral), vehicle: DMSO); 178 % of control (endpoint: median survival time, dose: 32.0 mg/kg/injection, schedule: Q01DX009 (ip), vehicle: DMSO); 167 % of control (endpoint: median survival time, dose: 32.0 mg/kg/injection, schedule: Q01DX009 (oral), vehicle: DMSO); 160 % of control (endpoint: median survival time, dose: 32.0 mg/kg/injection, schedule: Q01DX009 (sc), vehicle: DMSO). Further, the T/C by setting is: (endpoint: median survival time, dose: 32.0 mg/kg/injection, schedule: Q04DX003 (ip), vehicle: DMSO) 183 % of control; (endpoint: median survival time, dose: 64.0 mg/kg/injection, schedule: Q01DX009 (ip), vehicle: DMSO) 116 % of control; (endpoint: median survival time, dose: 64.0 mg/kg/injection, schedule: Q01DX009 (oral), vehicle: DMSO) 160 % of control; (endpoint: median survival time, dose: 64.0 mg/kg/injection, schedule: Q01DX009 (sc), vehicle: DMSO) 111 % of control; (endpoint: median survival time, dose: 64.0 mg/kg/injection, schedule: Q04DX003 (ip), vehicle: DMSO) 191 % of control; (endpoint: median survival time, dose: 128.0 mg/kg/injection, schedule: Q01DX001 (ip), vehicle: DMSO) 121 % of control.
Turning to `O=C(/C=C/c1ccccc1)NC(=S)NCc1ccccc1Cl`, the T/C (endpoint: mean survival time, dose: 50.0 mg/kg/injection, schedule: Q01DX009 (ip), vehicle: saline with Tween-80) was 95 % of control and 96 % of control; the T/C under setting [1] is 94 % of control; the T/C (endpoint: mean survival time, dose: 100.0 mg/kg/injection, schedule: Q04DX002 (ip), vehicle: saline with Tween-80) is 95 % of control and 110 % of control; the T/C under setting [2] is 92 % of control; the T/C (endpoint: mean survival time, dose: 200.0 mg/kg/injection, schedule: Q04DX002 (ip), vehicle: saline with Tween-80) is 90 % of control and 95 % of control; the T/C under setting [3] was 95 % of control. Also, the T/C (endpoint: mean survival time, dose: 400.0 mg/kg/injection, schedule: Q04DX002 (ip), vehicle: saline with Tween-80) is 98 % of control and 101 % of control.
Take `O=C(NCCCl)NCCCl`: the T/C reads like this: (endpoint: median survival time, dose: 267.0 mg/kg/injection, schedule: Q07DX003 (ip), vehicle: saline) 103 % of control; (endpoint: median survival time, dose: 400.0 mg/kg/injection, schedule: Q07DX003 (ip), vehicle: saline) 97 % of control; (endpoint: median survival time, dose: 600.0 mg/kg/injection, schedule: Q07DX003 (ip), vehicle: saline) 94 % of control; (endpoint: median survival time, dose: 800.0 mg/kg/injection, schedule: Q07DX003 (ip), vehicle: saline) 99 % of control and 100 % of control.
For the compound `CCCCCCCCCCCCCCCCCCCOc1ccc(OCCCCCCCCCCCCCCCC)cc1`, the T/C is, setting by setting: under setting [1], 100 % of control; under setting [2], 96 % of control; under setting [3], 88 % of control.

For the origin of these results see PubChem BioAssay AID256 (DTP/NCI, 2004).
